US20140213454A1, “METHODS TO INDUCE DROUGHT TOLERANCE IN CROPS” (Valent BioSciences Corporation, priority 2013, published 2014)

Columns and labels:
corn [1] = assay: Replicated corn trial 2012, moderate drought (Example 1); type: in vivo
Protocol: A replicated corn silage study was conducted in 2012. Corn was planted on May 18, 2012, and treated with two rates of GA3 at either the V2 (June 2) or V5 (June 18) growth stage, each time at two rates of GA3. Grain yields were estimated from harvests of 20 feet of row and converted to bushels of grain per acre. There was 1.5 inches of rain in the two weeks before planting but no rain from May 10 until May 29, when there was 0.7 inch rain. During June there was 2.9 inches of rain spread over the month. There were only two rain events from July 1-25, each of less than 0.2 inches. On July 26th there was approximately 2 inches of rain. Rainfall in June, July and August was about one third below the 30-year average for the area and the corn was under moderate drought conditions. Crop moisture conditions in July were described as ‘excessively dry’ by the National Climate Data Center of NOAA.

corn [2] = assay: Replicated corn trial 2012, extreme and exceptional drought (Example 2); type: in vivo; conditions: for Grain Yield: extreme and exceptional drought, untreated 88.45
From the text: In a replicated trial conducted in 2012, the corn crop experienced extreme and exceptional drought in July, as described by the National Climate Data Center. Corn was planted at the end of April and treated with GA3 at either the V2 or V5 growth stages. Thirty two days after application, the GA3-treated corn was approximately 10 inches taller than the untreated on average.

hybrid corn = assay: Field trial 2012, time course of GA3 applications, hybrid corn (Example 3); type: in vivo; conditions: 5.3 grams GA3/acre, extreme and exceptional drought, untreated 116
Protocol: In another field trial conducted in 2012 a time course of GA3 applications was performed. In this trial, hybrid corn was planted on April 24, 2012 at a density of 32,000 plants/acre. The plants were sprayed with GA3 at either the fifth leaf (V5) or tassel emergence (VT) on June 6 or July 7, respectively. This trial was subjected to extreme and exceptional drought in July during set and grain fill. As is shown in Table 3 below, the effect of the spray treatments of GA3 was dependent on the timing of the GA3 application.

corn [3] = conditions: Robertson and Greenway 1973; cited from earlier work
perennial ryegrass = conditions: Jiang and Fry 1998; cited from earlier work

C=C1C[C@]23C[C@@]1(O)CC[C@H]2[C@@]12C=C[C@H](O)[C@@](C)(C(=O)O1)[C@H]2[C@@H]3C(=O)O [GA3, gibberellic acid]
Grain Yield (corn [1]; 3.2 grams GA3/acre, application timing V2, untreated 124.0): 141.2 Bu/Acre
Grain Yield (corn [1]; 3.2 grams GA3/acre, application timing V5, untreated 124.0): 143.0 Bu/Acre
Grain Yield (corn [1]; 6.4 grams GA3/acre, application timing V2, untreated 124.0): 141.1 Bu/Acre
Grain Yield (corn [1]; 6.4 grams GA3/acre, application timing V5, untreated 124.0): 156.1 Bu/Acre
Grain Yield (corn [2]; 3.2 grams GA3/acre, application stage V2): 119.70 Bu/Acre
Grain Yield (corn [2]; 3.2 grams GA3/acre, application stage V5): 155.65 Bu/Acre
Grain Yield (corn [2]; 6.4 grams GA3/acre, application stage V2): 119.83 Bu/Acre
Grain Yield (corn [2]; 6.4 grams GA3/acre, application stage V5): 121.60 Bu/Acre
Plant height, taller than the untreated on average (corn [2]; thirty two days after application at V2 or V5): approximately 10 inches
Grain Yield (hybrid corn; application stage V5): 155 Bu/Acre
Grain Yield (hybrid corn; application stage VT (tassel emergence)): 131 Bu/Acre

C[N+](C)(C)CCCl [chlormequat chloride]
Drought resistance (corn [3]): induce drought resistance in corn

CCOC(=O)C1CC(=O)C(=C(O)C2CC2)C(=O)C1 (stereo not shown) [Trinexapac-ethyl, trinexapac-ethyl]
Drought tolerance (perennial ryegrass): induce drought tolerance in perennial ryegrass
